| melting point | SMILES |
| --- | --- |
| 191 °C | Cc1cc(-c2ccc(C(F)(F)F)cc2)cc(-c2nc(-c3ccc(N)nc3)cs2)n1 [Example 230, 5-{2-[6-Methyl-4-(4-trifluoromethyl-phenyl)-pyridin-2-yl]-thiazol-4-yl}-pyridin-2-ylamine] |
| > 250 °C | Cc1cc(-c2ccc(C(F)(F)F)cc2)cc(-c2nc(-c3cnc(N)nc3)cs2)n1 [Example 231, 5-{2-[6-Methyl-4-(4-trifluoromethyl-phenyl)-pyridin-2-yl]-thiazol-4-yl}-pyrimidin-2-ylamine] |
| 260 °C | Nc1ncc(-c2cccc(-c3cc(-c4ccc(C(F)(F)F)cc4)cc(C(F)(F)F)n3)c2)cn1 [Example 233, 5-{3-[6-Trifluoromethyl-4-(4-trifluoromethyl-phenyl)-pyridin-2-yl]-phenyl}-pyrimidin-2-ylamine] |
| 239 °C | Nc1ncc(-c2cccc(-c3cc(-c4ccc(Cl)cc4)cc(C(F)(F)F)n3)c2)cn1 [Example 234, 5-{3-[4-(4-Chloro-phenyl)-6-trifluoromethyl-pyridin-2-yl]-phenyl}-pyrimidin-2-ylamine] |
| 163 °C | Cc1cc(-c2ccc(C(F)(F)F)cc2)cc(-c2nc(-c3ccc(N)nc3)no2)n1 [Example 236, 5-{5-[6-Methyl-4-(4-trifluoromethyl-phenyl)-pyridin-2-yl]-[1,2,4]oxadiazol-3-yl}-pyridin-2-ylamine] |
| 191 °C | Cc1cc(-c2ccc(C(F)(F)F)cc2)cc(-c2ccnc(-c3ccc(N)nc3)n2)n1 [Example 239, 5-{4-[6-Methyl-4-(4-trifluoromethyl-phenyl)-pyridin-2-yl]-pyrimidin-2-yl}-pyridin-2-ylamine] |
| 264 °C | Cc1cc(-c2ccc(C(F)(F)F)cc2)cc(-c2ccnc(-c3cnc(N)nc3)n2)n1 [Example 240, 4-[6-Methyl-4-(4-trifluoromethyl-phenyl)-pyridin-2-yl]-[2,5′]bipyrimidinyl-2′-ylamine] |
| 258 °C | Cc1cc(-c2ccc(C(F)(F)F)cc2)cc(-c2nccc(-c3ccc(N)nc3)n2)n1 [Example 241, 5-{2-[6-Methyl-4-(4-trifluoromethyl-phenyl)-pyridin-2-yl]-pyrimidin-4-yl}-pyridin-2-ylamine] |
| > 250 °C | Cc1cc(-c2ccc(C(F)(F)F)cc2)cc(-c2cccc(-c3cncc(S(N)(=O)=O)c3)c2)n1 [Example 248, 5-{3-[6-Methyl-4-(4-trifluoromethyl-phenyl)-pyridin-2-yl]-phenyl}-pyridine-3-sulfonic acid amide] |
| 103 °C | Cc1cc(-c2ccc(C(F)(F)F)cc2)cc(-c2nccs2)n1 [Example 251, 2-Methyl-6-thiazol-2-yl-4-(4-trifluoromethyl-phenyl)-pyridine] |
| 196 °C | Cc1cc(-c2ccc(C(F)(F)F)cc2)cc(-c2ccc(-c3ccc(N)nc3)s2)n1 [Example 252, 5-{5-[6-Methyl-4-(4-trifluoromethyl-phenyl)-pyridin-2-yl]-thiophen-2-yl}-pyridin-2-ylamine] |
| > 250 °C | Cc1cc(-c2ccc(C(F)(F)F)cc2)cc(-c2ccc(-c3cnc(N)nc3)s2)n1 [Example 253, 5-{5-[6-Methyl-4-(4-trifluoromethyl-phenyl)-pyridin-2-yl]-thiophen-2-yl}-pyrimidin-2-ylamine] |
| 237 °C | Cc1cc(-c2ccc(Cl)c(Cl)c2)cc(-c2ccc(-c3cnc(N)nc3)s2)n1 [Example 255, 5-{5-[4-(3,4-Dichloro-phenyl)-6-methyl-pyridin-2-yl]-thiophen-2-yl}-pyrimidin-2-ylamine] |
| 175 °C | Cc1cc(-c2ccc(C(F)(F)F)cc2)cc(-c2cc(-c3ccc(N)nc3)cs2)n1 [Example 256, 5-{5-[6-Methyl-4-(4-trifluoromethyl-phenyl)-pyridin-2-yl]-thiophen-3-yl}-pyridin-2-ylamine] |
| 209 °C | CCc1cc(-c2ccc(C(F)(F)F)cc2)cc(-c2cccc(-c3cnc(N)nc3)c2)n1 [Example 260, 5-{3-[6-Ethyl-4-(4-trifluoromethyl-phenyl)-pyridin-2-yl]-phenyl}-pyrimidin-2-ylamine] |
| 218 °C | Cc1cc(-c2ccc(C(F)(F)F)cc2)cc(-c2ccnc(-c3cccc(S(=O)(=O)NC(C)(C)C)c3)n2)n1 [Example 262, N-tert-Butyl-3-{4-[6-methyl-4-(4-trifluoromethyl-phenyl)-pyridin-2-yl]-pyrimidin-2-yl}-benzenesulfonamide] |
| 74 °C | CCc1cc(-c2ccc(C(F)(F)F)cc2)cc(-c2cccc(-c3ccc(N)nc3)c2)n1 [Example 264, 5-{3-[6-Ethyl-4-(4-trifluoromethyl-phenyl)-pyridin-2-yl]-phenyl}-pyridin-2-ylamine] |

Second part, the compound before the results:

| SMILES | melting point |
| --- | --- |
| Cc1cc(-c2ccc(Cl)c(Cl)c2)nc(-n2cnc(-c3ccc(S(N)(=O)=O)s3)c2)n1 [Example 216, 5-{1-[4-(3,4-Dichloro-phenyl)-6-methyl-pyrimidin-2-yl]-1H-imidazol-4-yl}-thiophene-2-sulfonic acid amide] | 253.5 °C |
| CS(=O)(=O)c1cccc(-c2cn(-c3nc(-c4ccc(C(F)(F)F)cc4)cc(C(F)(F)F)n3)cn2)c1 [Example 217, 2-[4-(3-Methanesulfonyl-phenyl)-imidazol-1-yl]-4-trifluoromethyl-6-(4-trifluoromethyl-phenyl)-pyrimidine] | 231 °C |
| CS(=O)(=O)c1cccc(-c2cccc(-c3nc(-c4ccc(C(F)(F)F)cc4)cc(C(F)(F)F)n3)c2)c1 [Example 219, 2-(3′-Methanesulfonyl-biphenyl-3-yl)-4-trifluoromethyl-6-(4-trifluoromethyl-phenyl)-pyrimidine] | 183.5 °C |
| Nc1cccc(-c2cccc(-c3nc(-c4ccc(C(F)(F)F)cc4)cc(C(F)(F)F)n3)c2)c1 [Example 220, 3′-[4-Trifluoromethyl-6-(4-trifluoromethyl-phenyl)-pyrimidin-2-yl]-biphenyl-3-ylamine] | 156.5 °C |
| Cc1cc(-c2ccc(Cl)c(C)c2)nc(-n2cnc(-c3cccc(S(N)(=O)=O)c3)c2)n1 [Example 224, 3-{1-[4-(4-Chloro-3-methyl-phenyl)-6-methyl-pyrimidin-2-yl]-1H-imidazol-4-yl}-benzenesulfonamide] | 219 °C (dec.) |
| Cc1cc(-c2ccc(Cl)c(C)c2)nc(-n2cnc(-c3ccc(S(N)(=O)=O)s3)c2)n1 [Example 225, 5-{1-[4-(4-Chloro-3-methyl-phenyl)-6-methyl-pyrimidin-2-yl]-1H-imidazol-4-yl}-thiophene-2-sulfonic acid amide] | 267 °C (dec.) |
| Cc1cc(-c2ccc(Cl)c(C)c2)nc(-n2cnc(-c3ccc(N)nc3)c2)n1 [Example 226, 5-{1-[4-(4-Chloro-3-methyl-phenyl)-6-methyl-pyrimidin-2-yl]-1H-imidazol-4-yl}-pyridin-2-ylamine] | 202 °C (dec.) |
| Cc1cc(-c2ccc(Cl)cc2)cc(-c2cccc(-c3ccc(N)nc3)c2)n1 [Example 229, 5-{3-[4-(4-Chloro-phenyl)-6-methyl-pyridin-2-yl]-phenyl}-pyridin-2-ylamine] | 76 to 95 °C |
| Nc1ccc(-c2cccc(-c3cc(-c4ccc(C(F)(F)F)cc4)cc(C(F)(F)F)n3)c2)cn1 [Example 232, 5-{3-[6-Trifluoromethyl-4-(4-trifluoromethyl-phenyl)-pyridin-2-yl]-phenyl}-pyridin-2-ylamine] | 166 °C |
| Nc1ccc(-c2cccc(-c3cc(-c4ccc(Cl)cc4)cc(C(F)(F)F)n3)c2)cn1 [Example 235, 5-{3-[4-(4-Chloro-phenyl)-6-trifluoromethyl-pyridin-2-yl]-phenyl}-pyridin-2-ylamine] | 172 °C |
| Nc1ccc(-c2noc(-c3cc(C(F)(F)F)cc(-c4ccc(C(F)(F)F)cc4)n3)n2)cn1 [Example 238, 5-{5-[4-Trifluoromethyl-6-(4-trifluoromethyl-phenyl)-pyridin-2-yl]-[1,2,4]oxadiazol-3-yl}-pyridin-2-ylamine] | 229 °C |
| Cc1cc(-c2ccc(Cl)c(Cl)c2)cc(-n2cnc(-c3ccc(N)nc3)c2)n1 [Example 246, 5-{1-[4-(3,4-Dichloro-phenyl)-6-methyl-pyridin-2-yl]-1H-imidazol-4-yl}-pyridin-2-ylamine] | 245 °C |
| Cc1cc(-c2ccc(Cl)c(Cl)c2)cc(-c2cccc(-c3cnc(N)nc3)c2)n1 [Example 250, 5-{3-[4-(3,4-Dichloro-phenyl)-6-methyl-pyridin-2-yl]-phenyl}-pyrimidin-2-ylamine] | 188 °C |
| Cc1cc(-c2ccc(Cl)c(Cl)c2)cc(-c2ccc(N3C=CC=CC3N)s2)n1 (stereo not drawn) [Example 254, 1-{5-[4-(3,4-Dichloro-phenyl)-6-methyl-pyridin-2-yl]-thiophen-2-yl}-pyridin-2-ylamine] | 180 °C |
| Cc1cc(-c2ccc(C(F)(F)F)cc2)cc(-c2cccc(-c3cncc(S(=O)(=O)NC(C)(C)CO)c3)c2)n1 [Example 257, 5-{3-[6-Methyl-4-(4-trifluoromethyl-phenyl)-pyridin-2-yl]-phenyl}-pyridine-3-sulfonic acid (2-hydroxy-1,1-dimethyl-ethyl)-amide] | 105 °C (dec.) |
| CONS(=O)(=O)c1cccc(-c2cccc(-c3cc(-c4ccc(C(F)(F)F)cc4)cc(C)n3)c2)c1 [Example 258, 3′-[6-Methyl-4-(4-trifluoromethyl-phenyl)-pyridin-2-yl]-biphenyl-3-sulfonic acid methoxy-amide] | 181 °C |
| Cc1cc(-c2ccc(C(F)(F)F)cc2)cc(-c2cccc(-c3cccc(S(=O)(=O)NC(C)(C)C)c3)n2)n1 [Example 261, N-tert-Butyl-3-[6′-methyl-4′-(4-trifluoromethyl-phenyl)-[2,2′]bipyridinyl-6-yl]-benzenesulfonamide] | 183 °C |
| Cc1cc(-c2ccc(C(F)(F)F)cc2)cc(-c2nc(-c3cccc(S(=O)(=O)NC(C)(C)C)c3)cs2)n1 [Example 263, N-tert-Butyl-3-{2-[6-methyl-4-(4-trifluoromethyl-phenyl)-pyridin-2-yl]-thiazol-4-yl}-benzenesulfonamide] | 196 °C |
| CCc1cc(-c2ccc(C(F)(F)F)cc2)cc(-c2cccc(-c3cccc(S(=O)(=O)NC(C)(C)C)c3)c2)n1 [Example 265, 3′-[6-Ethyl-4-(4-trifluoromethyl-phenyl)-pyridin-2-yl]-biphenyl-3-sulfonic acid tert-butylamide] | 169 °C |

Source: patent US8183262B2, “Pyridine derivatives as mGluR2 antagonists” (Hoffmann-La Roche Inc., priority 2007, dated 2012)
